According to ChEMBL document CHEMBL4261498, “Synthesis, characterization, and radioprotective activity of α,β-unsaturated aryl sulfone analogs and their Tempol conjugates” (Medchemcomm, 2017):
Activity calls are given as the source filed them. No cut-off for these calls is given here.

What was measured:
HUVEC [1] = assay: Cytotoxicity against HUVEC after 24 hrs by MTT assay; assay type: cell-based; conditions: human
HUVEC [2] = assay: Cytotoxicity against HUVEC at <10 uM after 24 hrs by MTT assay; assay type: cell-based; conditions: human
HUVEC [3] = assay: Radioprotective activity against 5 Gy gamma radiation-mediated cell damage in HUVEC assessed as increase in cell survival at 0.1 to 10 uM preincubated for 2 hrs followed by 5 Gy gamma irradiation and measured after 48 hrs by MTT assay; assay type: functional, cell-based; conditions: Homo sapiens
HUVEC [4] = assay: Radioprotective activity against 5 Gy gamma radiation-mediated cell damage in HUVEC assessed as increase in cell survival at 0.1 to 10 uM after 48 hrs by MTT assay; assay type: functional, cell-based; conditions: Homo sapiens
HUVEC [5] = assay: Radioprotective activity against 5 Gy gamma radiation-mediated cell damage in HUVEC assessed as increase in cell survival at 0.01 to 10 uM preincubated for 2 hrs followed by 5 Gy gamma irradiation and measured after 48 hrs by MTT assay; assay type: functional, cell-based; conditions: Homo sapiens
HUVEC [6] = assay: Radioprotective activity against 5 Gy gamma radiation-mediated cell damage in HUVEC assessed as increase in cell survival at 0.01 to 1 uM after 48 hrs by MTT assay; assay type: functional, cell-based; conditions: Homo sapiens
HUVEC [7] = assay: Radioprotective activity against 5 Gy gamma radiation-mediated cell damage in HUVEC assessed as early apoptotic cells at 0.1 uM preincubated for 2 hrs followed by 5 Gy gamma irradiation and measured after 24 hrs by annexin-V-FITC/propidium iodide staining-based flow cytometric method (reference value: 21.2%); assay type: functional, Homo sapiens
HUVEC [8] = assay: Radioprotective activity against 5 Gy gamma radiation-mediated cell damage in HUVEC assessed as late apoptotic cells at 0.1 uM preincubated for 2 hrs followed by 5 Gy gamma irradiation and measured after 24 hrs by annexin-V-FITC/propidium iodide staining-based flow cytometric method (reference value: 9.5%); assay type: functional, Homo sapiens
HUVEC [9] = assay: Radioprotective activity against 5 Gy gamma radiation-mediated cell damage in HUVEC assessed as necrotic cells at 0.1 uM preincubated for 2 hrs followed by 5 Gy gamma irradiation and measured after 24 hrs by annexin-V-FITC/propidium iodide staining-based flow cytometric method (reference value: 3.5%); assay type: functional, Homo sapiens
HUVEC [10] = assay: Radioprotective activity against 5 Gy gamma radiation-mediated cell damage in HUVEC assessed as viable cells at 0.1 uM preincubated for 2 hrs followed by 5 Gy gamma irradiation and measured after 24 hrs by annexin-V-FITC/propidium iodide staining-based flow cytometric method (reference value: 65.8%); assay type: functional; conditions: Homo sapiens, light or radiation study, read-out: Activity
HUVEC [11] = assay: Radioprotective activity against 5 Gy gamma radiation-mediated cell damage in HUVEC assessed as early apoptotic cells at 1 uM preincubated for 2 hrs followed by 5 Gy gamma irradiation and measured after 24 hrs by annexin-V-FITC/propidium iodide staining-based flow cytometric method (reference value: 21.2%); assay type: functional, Homo sapiens
HUVEC [12] = assay: Radioprotective activity against 5 Gy gamma radiation-mediated cell damage in HUVEC assessed as late apoptotic cells at 1 uM preincubated for 2 hrs followed by 5 Gy gamma irradiation and measured after 24 hrs by annexin-V-FITC/propidium iodide staining-based flow cytometric method (reference value: 9.5%); assay type: functional, Homo sapiens
HUVEC [13] = assay: Radioprotective activity against 5 Gy gamma radiation-mediated cell damage in HUVEC assessed as necrotic cells at 1 uM preincubated for 2 hrs followed by 5 Gy gamma irradiation and measured after 24 hrs by annexin-V-FITC/propidium iodide staining-based flow cytometric method (reference value: 3.5%); assay type: functional, Homo sapiens
HUVEC [14] = assay: Radioprotective activity against 5 Gy gamma radiation-mediated cell damage in HUVEC assessed as viable cells at 1 uM preincubated for 2 hrs followed by 5 Gy gamma irradiation and measured after 24 hrs by annexin-V-FITC/propidium iodide staining-based flow cytometric method (reference value: 65.8%); assay type: functional; conditions: Homo sapiens, light or radiation study, read-out: Activity
HUVEC [15] = assay: Radioprotective activity against 5 Gy gamma radiation-mediated cell damage in HUVEC assessed as early apoptotic cells at 0.01 uM preincubated for 2 hrs followed by 5 Gy gamma irradiation and measured after 24 hrs by annexin-V-FITC/propidium iodide staining-based flow cytometric method (reference value: 21.2%); assay type: functional, Homo sapiens
HUVEC [16] = assay: Radioprotective activity against 5 Gy gamma radiation-mediated cell damage in HUVEC assessed as late apoptotic cells at 0.01 uM preincubated for 2 hrs followed by 5 Gy gamma irradiation and measured after 24 hrs by annexin-V-FITC/propidium iodide staining-based flow cytometric method (reference value: 9.5%); assay type: functional, Homo sapiens
HUVEC [17] = assay: Radioprotective activity against 5 Gy gamma radiation-mediated cell damage in HUVEC assessed as necrotic cells at 0.01 uM preincubated for 2 hrs followed by 5 Gy gamma irradiation and measured after 24 hrs by annexin-V-FITC/propidium iodide staining-based flow cytometric method (reference value: 3.5%); assay type: functional, Homo sapiens
HUVEC [18] = assay: Radioprotective activity against 5 Gy gamma radiation-mediated cell damage in HUVEC assessed as viable cells at 0.01 uM preincubated for 2 hrs followed by 5 Gy gamma irradiation and measured after 24 hrs by annexin-V-FITC/propidium iodide staining-based flow cytometric method (reference value: 65.8%); assay type: functional; conditions: Homo sapiens, light or radiation study, read-out: Activity
HUVEC [19] = assay: Radioprotective activity against 5 Gy gamma radiation-mediated cell damage in HUVEC assessed as reduction of total p53 levels at 0.01 to 1 uM by Western blot method; assay type: functional, cell-based; conditions: Homo sapiens
HUVEC [20] = assay: Radioprotective activity against 5 Gy gamma radiation-mediated cell damage in HUVEC assessed as reduction of phopsho-p53 levels at 0.01 to 1 uM by Western blot method; assay type: functional, cell-based; conditions: Homo sapiens
HUVEC [21] = assay: Radioprotective activity against 5 Gy gamma radiation-mediated cell damage in HUVEC assessed as decrease in caspase-3 activation at 0.01 to 1 uM by Western blot method; assay type: functional, cell-based; conditions: Homo sapiens
HUVEC [22] = assay: Radioprotective activity against 5 Gy gamma radiation-mediated cell damage in HUVEC assessed as increase in Bcl-2 levels at 0.01 to 1 uM by Western blot method; assay type: functional, cell-based; conditions: Homo sapiens
HUVEC [23] = assay: Radioprotective activity against 5 Gy gamma radiation-mediated cell damage in HUVEC assessed as decrease in Bax levels at 0.01 to 1 uM by Western blot method; assay type: functional, cell-based; conditions: Homo sapiens
HUVEC [24] = assay: Radioprotective activity against 5 Gy gamma radiation-mediated cell damage in HUVEC assessed as early apoptotic cells at 10 uM preincubated for 2 hrs followed by 5 Gy gamma irradiation and measured after 24 hrs by annexin-V-FITC/propidium iodide staining-based flow cytometric method (reference value: 21.2%); assay type: functional, Homo sapiens
HUVEC [25] = assay: Radioprotective activity against 5 Gy gamma radiation-mediated cell damage in HUVEC assessed as late apoptotic cells at 10 uM preincubated for 2 hrs followed by 5 Gy gamma irradiation and measured after 24 hrs by annexin-V-FITC/propidium iodide staining-based flow cytometric method (reference value: 9.5%); assay type: functional, Homo sapiens
HUVEC [26] = assay: Radioprotective activity against 5 Gy gamma radiation-mediated cell damage in HUVEC assessed as necrotic cells at 10 uM preincubated for 2 hrs followed by 5 Gy gamma irradiation and measured after 24 hrs by annexin-V-FITC/propidium iodide staining-based flow cytometric method (reference value: 3.5%); assay type: functional, Homo sapiens
HUVEC [27] = assay: Radioprotective activity against 5 Gy gamma radiation-mediated cell damage in HUVEC assessed as viable cells at 10 uM preincubated for 2 hrs followed by 5 Gy gamma irradiation and measured after 24 hrs by annexin-V-FITC/propidium iodide staining-based flow cytometric method (reference value: 65.8%); assay type: functional; conditions: Homo sapiens, light or radiation study, read-out: Activity
HUVEC [28] = assay: Radioprotective activity against 5 Gy gamma radiation-mediated cell damage in HUVEC assessed as reduction of total p53 levels at 0.1 to 10 uM by Western blot method; assay type: functional, cell-based; conditions: Homo sapiens
HUVEC [29] = assay: Radioprotective activity against 5 Gy gamma radiation-mediated cell damage in HUVEC assessed as reduction of phopsho-p53 levels at 0.1 to 10 uM by Western blot method; assay type: functional, cell-based; conditions: Homo sapiens
HUVEC [30] = assay: Radioprotective activity against 5 Gy gamma radiation-mediated cell damage in HUVEC assessed as decrease in caspase-3 activation at 0.1 to 10 uM by Western blot method; assay type: functional, cell-based; conditions: Homo sapiens
HUVEC [31] = assay: Radioprotective activity against 5 Gy gamma radiation-mediated cell damage in HUVEC assessed as increase in Bcl-2 levels at 0.1 to 10 uM by Western blot method; assay type: functional, cell-based; conditions: Homo sapiens
HUVEC [32] = assay: Radioprotective activity against 5 Gy gamma radiation-mediated cell damage in HUVEC assessed as decrease in Bax levels at 0.1 to 10 uM by Western blot method; assay type: functional, cell-based; conditions: Homo sapiens

Cc1ccc(/C=C/S(=O)(=O)Cc2ccc(Cl)cc2)cc1
Activity (HUVEC [1]): Toxic

CC(C)(C)c1ccc(CS(=O)(=O)/C=C/c2ccc(C(=O)O)cc2)cc1
Activity (HUVEC [1]): Toxic

O=S(=O)(/C=C/c1ccc(-c2ccccc2)cc1)Cc1ccc(Cl)cc1
Activity (HUVEC [1]): Toxic

CC(c1ccccc1)S(=O)(=O)/C=C/c1ccc(C(=O)OC2CC(C)(C)N([O])C(C)(C)C2)cc1 (configuration not stated)
Activity (HUVEC [2]): Non-Toxic

Cc1ccc(CS(=O)(=O)/C=C/c2ccc(C(=O)O)cc2)cc1
Activity (HUVEC [1]): Toxic

CC(C)(C)c1ccc(CS(=O)(=O)/C=C/c2ccc(C(=O)OC3CC(C)(C)N([O])C(C)(C)C3)cc2)cc1
Activity (HUVEC [2]): Non-Toxic

CC(c1ccccc1)S(=O)(=O)/C=C/c1ccc(C(=O)O)cc1 (configuration not stated)
Activity (HUVEC [1]): Toxic
Activity (HUVEC [3]): Active
Activity (HUVEC [4]): Active

CC1(C)CC(OC(=O)c2ccc(/C=C/S(=O)(=O)Cc3ccc(Cl)cc3)cc2)CC(C)(C)N1[O]
Activity (HUVEC [2]): Non-Toxic
Activity (HUVEC [5]): Active
Activity (HUVEC [6]): Active
Activity (HUVEC [7]): 6.2%
Activity (HUVEC [8]): 2.5%
Activity (HUVEC [9]): 1.3%
viability at 0.1 µM (HUVEC [10]): 90%
Activity (HUVEC [11]): 11.7%
Activity (HUVEC [12]): 2.9%
Activity (HUVEC [13]): 2.1%
viability at 1 µM (HUVEC [14]): 83.3%
Activity (HUVEC [15]): 11.2%
Activity (HUVEC [16]): 2.2%
Activity (HUVEC [17]): 1.9%
viability at 0.01 µM (HUVEC [18]): 84.7%
Activity (HUVEC [19]): Active
Activity (HUVEC [20]): Active
Activity (HUVEC [21]): Active
Activity (HUVEC [22]): Active
Activity (HUVEC [23]): Active

O=S(=O)(/C=C/c1ccccc1)Cc1ccc(Cl)cc1
Activity (HUVEC [1]): Toxic

COc1ccc(/C=C/S(=O)(=O)Cc2ccc(Cl)cc2)cc1
Activity (HUVEC [1]): Toxic

CC1(C)CC(OC(=O)c2ccc(/C=C/S(=O)(=O)Cc3ccc(OC(F)(F)F)cc3)cc2)CC(C)(C)N1[O]
Activity (HUVEC [2]): Non-Toxic
Activity (HUVEC [5]): inactive
Activity (HUVEC [6]): Active
Activity (HUVEC [7]): 12.7%
Activity (HUVEC [8]): 2%
Activity (HUVEC [9]): 0.6%
viability at 0.1 µM (HUVEC [10]): 84.7%
Activity (HUVEC [11]): 6.9%
Activity (HUVEC [12]): 1.1%
Activity (HUVEC [13]): 1.7%
viability at 1 µM (HUVEC [14]): 90.3%
Activity (HUVEC [15]): 15%
Activity (HUVEC [16]): 1.4%
Activity (HUVEC [17]): 1.1%
viability at 0.01 µM (HUVEC [18]): 82.5%
Activity (HUVEC [19]): Active
Activity (HUVEC [20]): Active
Activity (HUVEC [21]): Active
Activity (HUVEC [22]): Active
Activity (HUVEC [23]): Active

O=C(O)c1ccc(/C=C/S(=O)(=O)Cc2ccc(C(F)(F)F)cc2)cc1
Activity (HUVEC [1]): Toxic

O=C(O)c1ccc(/C=C/S(=O)(=O)Cc2ccc(F)cc2)cc1
Activity (HUVEC [1]): Toxic
Activity (HUVEC [3]): inactive
Activity (HUVEC [7]): 7.3%
Activity (HUVEC [8]): 0.8%
Activity (HUVEC [9]): 1.5%
viability at 0.1 µM (HUVEC [10]): 90.4%
Activity (HUVEC [11]): 10.5%
Activity (HUVEC [12]): 2.3%
Activity (HUVEC [13]): 1.6%
viability at 1 µM (HUVEC [14]): 85.6%
Activity (HUVEC [24]): 4.7%
Activity (HUVEC [25]): 1%
Activity (HUVEC [26]): 1%
viability at 10 µM (HUVEC [27]): 93.4%
Activity (HUVEC [28]): Active
Activity (HUVEC [29]): Active
Activity (HUVEC [30]): Active
Activity (HUVEC [31]): Active
Activity (HUVEC [32]): Active

COc1ccc(CS(=O)(=O)/C=C/c2ccc(C(=O)O)cc2)cc1
Activity (HUVEC [1]): Toxic

CC1(C)CC(OC(=O)c2ccc(/C=C/S(=O)(=O)Cc3ccc(F)cc3)cc2)CC(C)(C)N1[O]
Activity (HUVEC [2]): Non-Toxic
Activity (HUVEC [5]): Active
Activity (HUVEC [7]): 7.1%
Activity (HUVEC [8]): 2.7%
Activity (HUVEC [9]): 1.4%
viability at 0.1 µM (HUVEC [10]): 88.8%
Activity (HUVEC [11]): 6.8%
Activity (HUVEC [12]): 1.4%
Activity (HUVEC [13]): 1%
viability at 1 µM (HUVEC [14]): 90.8%
Activity (HUVEC [15]): 13%
Activity (HUVEC [16]): 4%
Activity (HUVEC [17]): 1.9%
viability at 0.01 µM (HUVEC [18]): 81%

O=C(O)c1ccc(/C=C/S(=O)(=O)Cc2ccccc2)cc1
Activity (HUVEC [1]): Toxic
